According to patent US12351574B2, “Selective ligands for modulation of GIRK channels” (Northeastern University, priority 2018, dated 2025):
“Also recorded” adds a separate entry of the source.

Legend:
GIRK1/2 = molecular target: T1, GIRK1/2 (UniProt P48542+P48549); assay: two-electrode voltage clamp (TEVC) in Xenopus oocytes expressing GIRK1/2 wild-type; format: cell-based, human GIRK1, mouse GIRK2; design: expressed in transfected cells; host or cells: Xenopus laevis oocytes (cRNA injection); conditions: for Emax: ML297 considered 100%, read-out: EMAX at GIRK1/2, % relative to ML297; for selectivity for GIRK1/2 over GIRK1/4 (in words) / EC50: TEVC; for selectivity for GIRK1/2 over GIRK1/4 (in words): GIRK1/2 versus GIRK1/4; for EC50: Xenopus oocytes, GIRK1/2 wild-type; for potency/efficacy compared to GAT1508 (in words) / activation of GIRK1/2 (in words): concentration-response, FIGS. 34A-34I; for EMAX at GIRK1/2: current normalized to basal current
T1 sequence (P48549 1-501): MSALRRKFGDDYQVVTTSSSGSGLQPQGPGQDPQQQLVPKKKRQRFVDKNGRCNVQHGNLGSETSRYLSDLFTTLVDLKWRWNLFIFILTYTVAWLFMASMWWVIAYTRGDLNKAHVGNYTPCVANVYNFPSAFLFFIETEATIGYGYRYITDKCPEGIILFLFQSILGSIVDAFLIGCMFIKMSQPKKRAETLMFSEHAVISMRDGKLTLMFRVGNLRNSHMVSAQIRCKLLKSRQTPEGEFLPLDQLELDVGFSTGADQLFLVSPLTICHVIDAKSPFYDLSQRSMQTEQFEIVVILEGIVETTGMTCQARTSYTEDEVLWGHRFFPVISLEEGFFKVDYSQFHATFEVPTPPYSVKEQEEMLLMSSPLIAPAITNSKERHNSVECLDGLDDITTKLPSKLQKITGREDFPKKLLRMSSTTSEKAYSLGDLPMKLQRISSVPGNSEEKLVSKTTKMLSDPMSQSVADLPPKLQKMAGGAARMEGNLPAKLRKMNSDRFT
T1 sequence (P48542 1-425): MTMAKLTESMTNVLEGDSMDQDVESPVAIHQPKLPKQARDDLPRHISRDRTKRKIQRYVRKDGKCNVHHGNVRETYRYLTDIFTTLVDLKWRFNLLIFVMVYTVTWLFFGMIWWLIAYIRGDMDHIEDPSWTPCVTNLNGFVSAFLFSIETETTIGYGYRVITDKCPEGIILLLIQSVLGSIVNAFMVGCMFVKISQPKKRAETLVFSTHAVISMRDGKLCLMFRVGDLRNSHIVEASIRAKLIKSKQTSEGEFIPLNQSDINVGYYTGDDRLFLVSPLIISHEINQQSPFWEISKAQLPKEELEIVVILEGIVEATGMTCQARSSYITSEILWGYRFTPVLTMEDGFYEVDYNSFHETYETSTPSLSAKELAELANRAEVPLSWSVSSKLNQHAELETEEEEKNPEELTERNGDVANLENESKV
Text: (§1) Molecular biology: For Xenopus oocyte expression, human GIRK1 and human GIRK4 cDNAs were subcloned into pGEMHE. For mammalian expression, human GIRK1 and human GIRK4 cDNAs were subcloned into pcDNA3 and pcDNA3.1/V5-His B, respectively (Invitrogen). Mouse GIRK2 cDNA was subcloned in the dual-function vector, pXoom. Point mutations were introduced using a standard Pfu-based mutagenesis technique according to the QuikChange protocol (Agilent). Mutations were verified by sequencing.
(§2) Xenopus laevis oocyte expression: Plasmid DNAs of GIRK channel subunits were linearized prior to in vitro transcription. Capped RNAs were transcribed using mMESSAGE mMACHINE T7 Transcription Kit (Thermo Fisher Scientific). Xenopus oocytes were surgically extracted, dissociated and defolliculated by collagenase treatment, and microinjected with 50 nl of a water solution containing 1 ng of each GIRK subunit RNA. For TEVC experiments, oocytes were kept 2 days at 17° C. before recording, while for NPo experiments oocytes were incubated for up to 4 days at 17° C.
(§3) Xenopus laevis oocyte expression: All cDNA constructs in the pGEMHE vector were linearized using the NheI restriction enzyme, whereas those in the pXoom vector were linearized using the XhoI restriction enzyme. Linearized cDNAs were in vitro-transcribed using the mMessage mMachine® kit (Ambion) kit. Complementary RNA (cRNA) concentrations were quantified by optical density. Xenopus oocytes were surgically extracted, dissociated, and defolliculated by collagenase treatment and microinjected with 50 nl of the desired cRNAs diluted in RNAase-free water. The use of Xenopus laevis frogs for this study was approved by the Institutional Animal Care and Use Committee (IACUC) at Northeastern University. All constructs used in this study were injected to achieve between 1-2 ng per oocyte depending on the channel. Oocytes were incubated for 2 days at 18° C.
(§4) Electrophysiology of oocytes: Whole-oocyte currents were measured by conventional two-electrode voltage clamp (TEVC) with a GeneClamp 500 amplifier (Axon Instruments). […] Barium-sensitive currents were normalized to average basal current in the vehicle solutions. The HK solution contained the following: 96 mM KCl, 1 mM NaCl, 1 mM MgCl2, 5 mM KOH/HEPES, pH 7.4. The barium solution consisted of HK+10 mM BaCl2. Five to ten oocytes from the same batch (same frog) were recorded for each group, and the experiments were repeated in at least four batches. Data acquisition and analysis were carried out using pClamp9 (Molecular Devices) and OriginPro (Microcal) software.

GIRK1/4 = molecular target: T2, GIRK1/4 (Homo sapiens, UniProt P48544+P48549); assay: two-electrode voltage clamp (TEVC) in Xenopus oocytes expressing GIRK1/4 wild-type; format: cell-based; design: expressed in transfected cells; host or cells: Xenopus laevis oocytes (cRNA injection); conditions: for activation of GIRK1/4 (in words): concentration-response, FIGS. 34A-34I; for Emax: ML297 considered 100%, read-out: EMAX at GIRK1/4, % relative to ML297; for EC50: TEVC, Xenopus oocytes, GIRK1/4 wild-type; for EMAX at GIRK1/4: current normalized to basal current; for modulation of GIRK1/4 channels (in words): Examples 5 and 6, Xenopus oocytes
T2 sequence (P48549 1-501): T1 sequence (P48549 1-501)
T2 sequence (P48544 1-419): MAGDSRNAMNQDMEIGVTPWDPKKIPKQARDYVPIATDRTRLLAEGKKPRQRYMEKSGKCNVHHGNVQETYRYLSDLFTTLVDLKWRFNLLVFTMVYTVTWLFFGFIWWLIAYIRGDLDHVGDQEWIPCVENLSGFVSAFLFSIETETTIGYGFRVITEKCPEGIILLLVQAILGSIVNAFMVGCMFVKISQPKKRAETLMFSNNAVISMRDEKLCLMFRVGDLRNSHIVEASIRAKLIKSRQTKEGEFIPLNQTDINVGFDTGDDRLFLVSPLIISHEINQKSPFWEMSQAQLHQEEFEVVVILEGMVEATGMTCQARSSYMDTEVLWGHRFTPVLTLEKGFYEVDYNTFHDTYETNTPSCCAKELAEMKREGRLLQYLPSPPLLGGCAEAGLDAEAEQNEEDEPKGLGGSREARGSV
Text: as §1, §2, §3, §4

[1] = tested on: BLA neurons (GIRK currents); assay: whole-cell patch-clamp in acute brain slices, basolateral amygdala (BLA) neurons; format: cell-based, rat; conditions: 100 ms puff of 100 μM, compared to baseline
Method: Electrophysiological recordings from brain slices containing basolateral amygdala (BLA) neurons: Electrophysiology was performed using 150-200 g male Sprague-Dawley rats (Harlan/Envigo, Indianapolis, IN). Rats were group housed in plastic cages in standard housing conditions with ad libitum access to food and water with 12:12 light/dark cycle (lights on at 07:00 h). All experiments were conducted in accordance with the Guide for the Care and Use of Laboratory Animals (Institute for Laboratory Animal Research, The National Academies Press) and the guidelines of the IUPUI Institutional Animal Care and Use Committee. Rats were anesthetized with isoflurane and immediately decapitated. Brains were then rapidly removed, placed in ice-cold oxygenated artificial cerebrospinal fluid solution (ACSF) and coronal slices ([…]) were prepared containing the amygdala. Slices were incubated at 31° C. for 30 min and then returned to room temperature until recording. [ACSF solution in mM: 130 NaCl; 3.5 KCl; 1.1 KH2PO4; 1.3 MgCl2; 2.5 CaCl2; 30 NaHCO3; 10 glucose, 315 mOsm, 7.4 pH]. Cells were identified for recording at 40× magnification using Scientifica Slicescope microscope under DIC illumination (Scientifica, Uckfield, UK). ACSF was warmed to 30° C. and perfused at a rate of 2-3 ml/min during recordings. Compounds were added to ACSF at desired concentrations. Whole-cell patch-clamp recordings were obtained using standard techniques. Borosilicate glass electrodes (WPI, Sarasota, FL) (resistance 3-6 MΩ) were prepared and used for both recording and baclofen application. [Recording internal solution in mM: 140 K-gluconate; 2 KCl; 3 MgCl2; 10 HEPES; 5 Phosphocreatinine; 2 K-ATP; 0.2 Na-GTP, 290 mOsm, 7.4 pH]. In voltage-clamp mode, the cell was adjusted to −50 mV at the beginning of all experiments and 5 min stable baseline was established before treatment. Picospritzer II (Parker Hannifin, Hollis, NH) was utilized for local application of 100 μM GABA-B agonist baclofen in ACSF to activate GIRKs. Baseline and baclofen-induced currents were averaged from three responses per cell and analyzed using ClampFit software (Molecular Devices, San Jose, CA). […] Several control cells were subjected to baclofen at 2 min intervals for 30 min and consistent responses were observed, thus ruling out time-dependent effects.
The inventors employed whole-cell patch-clamp recording in acute brain slices to examine the effect of GAT1508. The inventors utilized brain slices that included the basolateral amygdala (BLA), a limbic structure that has been extensively described to coordinate the acquisition and expression of fear memories. […] Next, the inventors examined the response of BLA neurons to baclofen, a GABAB-receptor agonist that induces GIRK-mediated potassium currents. […]

Emax (GIRK1/2) | selectivity for GIRK1/2 over GIRK1/4 (in words) (GIRK1/2) | EC50 (GIRK1/2) | potency/efficacy compared to GAT1508 (in words) (GIRK1/2) | EMAX at GIRK1/2 (GIRK1/2) | Emax (GIRK1/4) | EC50 (GIRK1/4) | EMAX at GIRK1/4 (GIRK1/4) | Structure (SMILES) | activation of GIRK1/4 (in words) (GIRK1/4) | activation of GIRK1/2 (in words) (GIRK1/2) | also measured
96% | retained some selectivity | 4.05 ± 0.14 µM | less potent than GAT1508 for GIRK1/2 | 2.797±0.18 |  |  |  | Cc1cc(NC(=O)Nc2ccc(Cl)s2)n(-c2ccccc2)n1 [GAT1501, 1-(5-chlorothiophen-2-yl)-3-(3-methyl-1-phenyl-1H-pyrazol-5-yl)urea] | did not show activation of GIRK1/4 at concentrations less than 20 μM; also recorded: negligible |  | 
91% |  | 4.41 ± 0.15 µM |  | 2.70±0.20 | 104% | 3.13 ± 0.24 µM | 1.63±0.09 | Cc1cc(NC(=O)Nc2cc(Br)cs2)n(-c2ccccc2)n1 [GAT1502, 1-(4-bromothiophen-2-yl)-3-(3-methyl-1-phenyl-1H-pyrazol-5-yl)urea] | much poorer activators | much poorer activators | 
155% | lacked selectivity | 17.1 ± 0.28 µM | less potent than GAT1508 | 3.9±1.04 | 157% | 7.02 ± 0.24 µM | 1.95±0.21 | Cc1cc(NC(=O)Nc2cccs2)n(-c2ccccc2)n1 [GAT1506, 1-(3-methyl-1-phenyl-1H-pyrazol-5-yl)-3-(thiophen-2-yl)urea] |  |  | 
 |  |  |  |  |  |  |  | Cc1nn(-c2ccccc2)c(NC(=O)Nc2ccc(F)c(F)c2)c1Br [GAT1528] |  |  | modulation of GIRK1/2 channels (in words) (GIRK1/2; Examples 5 and 6, Xenopus oocytes): no effect on basal activity; modulation of GIRK1/4 channels (in words) (GIRK1/4): selective for GIRK1/4 inhibition against GIRK1/2 channel activity
 | lack of specificity |  |  |  |  |  |  | Cc1cc(NC(=O)Nc2cnc(Br)s2)n(-c2ccccc2)n1 [GAT1530, 1-(2-bromothiazol-5-yl)-3-(3-methyl-1-phenyl-1H-pyrazol-5-yl)urea] |  |  | 
 |  |  |  |  |  |  |  | Cc1cc(NC(=O)N/C=C/c2ccccc2)n(-c2ccccc2)n1 [GAT1537] |  |  | modulation of GIRK1/4 channels (in words) (GIRK1/4): little or no effect
 |  |  |  |  |  |  |  | Cc1cc(NC(=O)Nc2sccc2Br)n(-c2ccccc2)n1 [GAT1570, 1-(3-bromothiophen-2-yl)-3-(3-methyl-1-phenyl-1H-pyrazol-5-yl)urea] | much poorer activators; also recorded: negligible | much poorer activators; also recorded: negligible | 
 |  |  |  |  |  |  |  | Cc1cc(NC(=O)Nc2ccc(I)s2)n(-c2ccccc2)n1 [GAT1574, 1-(5-iodothiophen-2-yl)-3-(3-methyl-1-phenyl-1H-pyrazol-5-yl)urea] | poorer activator than the bromine analog; also recorded: negligible | poorer activator than the bromine analog; also recorded: negligible | 
 |  |  |  |  |  |  |  | NCC(CC(=O)O)c1ccc(Cl)cc1 (stereo not drawn) [baclofen, reference compound] |  |  | current response of BLA neurons (in words) [1]: induced a significant outward current

Structure (SMILES) | Emax (GIRK1/2) | selectivity for GIRK1/2 over GIRK1/4 (in words) (GIRK1/2) | EC50 (GIRK1/2) | potency/efficacy compared to GAT1508 (in words) (GIRK1/2) | EMAX at GIRK1/2 (GIRK1/2) | Emax (GIRK1/4) | EC50 (GIRK1/4) | EMAX at GIRK1/4 (GIRK1/4) | activation of GIRK1/4 (in words) (GIRK1/4) | activation of GIRK1/2 (in words) (GIRK1/2) | also measured
Cc1cc(NC(=O)Nc2ccc(F)s2)n(-c2ccccc2)n1 [GAT1575, 1-(5-fluorothiophen-2-yl)-3-(3-methyl-1-phenyl-1H-pyrazol-5-yl)urea] | 210% | less selective between GIRK1/2 and GIRK1/4 than GAT1508 | 9.39 ± 0.12 µM | highly efficacious but much less potent than GAT1508 | 4.92±0.49 | 192% | 11.2 ± 0.25 µM | 2.16±0.32 |  |  | 
